What all share (assay type): in vivo
What all share (conditions): 250 g/h, evaluated after 13 days

In test [1] the test system is Lolium perenne (LOLPE). Kind of test: Pre-emergence herbicidal glasshouse test, percentage damage. Summed up:
(§1)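 Five-point damage scores (5=80-100%, 1=0-19%) were recorded 13 days after application of 250 g/h. Treatment was pre-emergence (1 day after sowing) or post-emergence (8 days), and plants were kept at 24/16 °C, 14 h light, 65% humidity with twice-daily watering.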

The subject of test [2] is Setaria faberi (SETFA). The test is described as above. In short, it runs like this: as §1
Test [3] relates to Echinochloa crus-galli (ECHCG). The test is described as above. Summed up: as §1
The test system of test [4] is Alopecurus myosuroides (ALOMY). The test is described as above. Summed up:
as §1

Test [5] deals with Avena fatua (AVEFA). The test is described as above. In short, it runs like this: as §1
Test [6] deals with Setaria faberi (SETFA). Kind of test: Post-emergence herbicidal glasshouse test, percentage damage. In short, it runs like this:
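Percentage damage was scored 13 days after treatment on a five-point scale (1=0-19% to 5=80-100%). Treatments were post-emergence sprays on 8-day-old wheat, barley and SETFA plants in a glasshouse (24/16 °C day/night, 14 h light, 65% humidity), using acetone/water 50:50 with 0.5% Tween 20 at the stated rates. Wheat additionally received cloquintocet-mexyl safener at 50 g/ha.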

In test [7] the test system is Lolium perenne (LOLPE). Described as above. In short, it runs like this:
as §1

The subject of test [8] is Echinochloa crus-galli (ECHCG). Described as above. In short, it runs like this: as §1
For test [9], the system named is Alopecurus myosuroides (ALOMY). The test is described as above. Summed up:
as §1

For test [10], the system named is Avena fatua (AVEFA). Described as above. Summed up: as §1

The text below walks through data of patent publication US12043599B2, “Herbicidal compounds” (SYNGENTA PARTICIPATIONS AG, priority 2018, dated 2024).

Consider `CC#Cc1cc(C)c(C2=C(OC(=O)OC)CC3(CCN(C(=O)NC4CC4)CC3)CC2=O)c(C)c1` [Compound P15], for which, in the test with Lolium perenne (LOLPE) [1], the “LOLPE PRE percentage damage (five point scale)” value (“LOLPE PRE percentage damage” below) is listed as 5 (5=80-100%). Also, the “SETFA PRE percentage damage (five point scale)” value (“SETFA PRE percentage damage” for short) in the test on Setaria faberi (SETFA) [2] is listed as 5 (5=80-100%). In addition, the “ECHCG PRE percentage damage (five point scale)” value (from here on “ECHCG PRE percentage damage”) in test [3] was 5 (5=80-100%). In test [4], the “ALOMY PRE percentage damage (five point scale)” value (from here on “ALOMY PRE percentage damage”) is reported as 5 (5=80-100%). The “AVEFA PRE percentage damage (five point scale)” value (from here on “AVEFA PRE percentage damage”) with Avena fatua (AVEFA) [5] is recorded as 5 (5=80-100%). In addition, the “SETFA POST percentage damage (five point scale)” value (from here on “SETFA POST percentage damage”) in the test with Setaria faberi (SETFA) [6] was 5 (5=80-100%). Further, the “LOLPE POST percentage damage (five point scale)” value (shortened to “LOLPE POST percentage damage”) in the test on Lolium perenne (LOLPE) [7] is 5 (5=80-100%). Further, in [8], the “ECHCG POST percentage damage (five point scale)” value (“ECHCG POST percentage damage” below) is 5 (5=80-100%). In test [9], the “ALOMY POST percentage damage (five point scale)” value (from here on “ALOMY POST percentage damage”) is 5 (5=80-100%). Besides, in the test with Avena fatua (AVEFA) [10], the “AVEFA POST percentage damage (five point scale)” value (shortened to “AVEFA POST percentage damage”) is reported as 5 (5=80-100%).

`CC#Cc1cc(C)c(C2=C(OS(=O)(=O)c3ccccn3)CC3(CCN(S(=O)(=O)c4ccccn4)CC3)CC2=O)c(C)c1` [Compound P17]: the “LOLPE PRE percentage damage” value with Lolium perenne (LOLPE) [1] is 4 (4=60-79%). In addition, the “SETFA PRE percentage damage” value in the test on Setaria faberi (SETFA) [2] was 4 (4=60-79%). In addition, the “ECHCG PRE percentage damage” value in test [3] was 5 (5=80-100%). Besides, the “ALOMY PRE percentage damage” value in [4] was 5 (5=80-100%). For the same compound, the “AVEFA PRE percentage damage” value with Avena fatua (AVEFA) [5] was 3 (3=40-59%). Further, in the test with Setaria faberi (SETFA) [6], the “SETFA POST percentage damage” value was 5 (5=80-100%). Besides, the “LOLPE POST percentage damage” value in the test on Lolium perenne (LOLPE) [7] was 5 (5=80-100%). For the same compound, the “ECHCG POST percentage damage” value in [8] is on record as 5 (5=80-100%). For the same compound, the “ALOMY POST percentage damage” value in [9] is on record as 5 (5=80-100%). The “AVEFA POST percentage damage” value with Avena fatua (AVEFA) [10] is 5 (5=80-100%).

Take `CC#Cc1cc(C)c(C2=C(OC(=O)C3CC3)CC3(CCN(C(=O)C4CC4)CC3)CC2=O)c(C)c1` [Compound P1, [3-(cyclopropanecarbonyl)-9-(2,6-dimethyl-4-prop-1-ynyl-phenyl)-10-oxo-3-azaspiro[5.5]undec-8-en-8-yl] cyclopropanecarboxylate]: the “LOLPE PRE percentage damage” value in the test with Lolium perenne (LOLPE) [1] is reported as 5 (5=80-100%). In addition, the “SETFA PRE percentage damage” value in the test on Setaria faberi (SETFA) [2] is reported as 5 (5=80-100%). Besides, the “ECHCG PRE percentage damage” value in test [3] is recorded as 5 (5=80-100%). Besides, the “ALOMY PRE percentage damage” value in [4] was 5 (5=80-100%). Further, the “AVEFA PRE percentage damage” value in the test with Avena fatua (AVEFA) [5] was 5 (5=80-100%). For the same compound, the “SETFA POST percentage damage” value with Setaria faberi (SETFA) [6] is listed as 5 (5=80-100%). Further, the “LOLPE POST percentage damage” value in the test with Lolium perenne (LOLPE) [7] was 5 (5=80-100%). Further, the “ECHCG POST percentage damage” value in test [8] was 5 (5=80-100%). Moreover, in [9], the “ALOMY POST percentage damage” value is listed as 5 (5=80-100%). In addition, in the test with Avena fatua (AVEFA) [10], the “AVEFA POST percentage damage” value is 5 (5=80-100%).

Regarding `CC#Cc1cc(C)c(C2C(=O)CC3(CCN(C(=O)N(C)OC)CC3)CC2=O)c(C)c1` [Compound A9], the “LOLPE PRE percentage damage” value with Lolium perenne (LOLPE) [1] is recorded as 5 (5=80-100%). The “SETFA PRE percentage damage” value with Setaria faberi (SETFA) [2] is listed as 5 (5=80-100%). Moreover, the “ECHCG PRE percentage damage” value in test [3] is given as 5 (5=80-100%). For the same compound, the “ALOMY PRE percentage damage” value in [4] is recorded as 5 (5=80-100%). For the same compound, the “AVEFA PRE percentage damage” value in the test on Avena fatua (AVEFA) [5] is 5 (5=80-100%). The “SETFA POST percentage damage” value with Setaria faberi (SETFA) [6] was 5 (5=80-100%). Further, the “LOLPE POST percentage damage” value in the test with Lolium perenne (LOLPE) [7] is recorded as 5 (5=80-100%). Further, the “ECHCG POST percentage damage” value in test [8] is 5 (5=80-100%). In test [9], the “ALOMY POST percentage damage” value is 5 (5=80-100%). The “AVEFA POST percentage damage” value in the test with Avena fatua (AVEFA) [10] is on record as 5 (5=80-100%).

Consider `CC#Cc1cc(C)c(C2C(=O)CC3(CCN(C(=O)Cc4cnc[nH]4)CC3)CC2=O)c(C)c1` [Compound A196], for which the “LOLPE PRE percentage damage” value in the test on Lolium perenne (LOLPE) [1] is reported as 5 (5=80-100%). Also, the “SETFA PRE percentage damage” value in the test on Setaria faberi (SETFA) [2] is reported as 5 (5=80-100%). Moreover, in test [3], the “ECHCG PRE percentage damage” value is reported as 5 (5=80-100%). The “ALOMY PRE percentage damage” value in test [4] is on record as 3 (3=40-59%). For the same compound, the “AVEFA PRE percentage damage” value with Avena fatua (AVEFA) [5] is recorded as 4 (4=60-79%). Moreover, the “SETFA POST percentage damage” value in the test on Setaria faberi (SETFA) [6] is reported as 5 (5=80-100%). Besides, the “LOLPE POST percentage damage” value with Lolium perenne (LOLPE) [7] is reported as 5 (5=80-100%). The “ECHCG POST percentage damage” value in test [8] was 5 (5=80-100%). Moreover, the “ALOMY POST percentage damage” value in [9] is listed as 5 (5=80-100%). In addition, the “AVEFA POST percentage damage” value in the test on Avena fatua (AVEFA) [10] is on record as 5 (5=80-100%).
